In patent US20060110376A1, “MDA-7 and free radicals in the treatment of cancer” (priority 2002, published 2006):

Columns and labels:
Type in all cases: cell-based, human
prostate carcinoma cells = test: ROS production (DCF fluorescence, flow cytometry)
Experimental: (§1) Cells were seeded in 96-well plates, pretreated with NAC (5 mM) or Tiron (1 mM) for 2 h and infected with Ad.mda-7. Forty eight hours later, viability was assessed by MTT assay. […] Cells were seeded in 96-well plates, infected with Ad.mda-7 and treated with As2O3 (10 μM) or NSC656240 (400 nM). Forty eight h later, viability was assessed by MTT assay. Panel C. […] After treatment, cells were stained using DCF-DA and analyzed using flow cytometry. […] After treatment, cells were washed and stained with Annexin V-FITC conjugate. Late apoptotic and necrotic cells were excluded using PI staining. Results are the mean of three independent experiments performed with triplicate samples±S.E.

[1] = test system: pancreatic carcinoma cells; test: MTT viability assay
Experimental: (§2) MTT Viability Assays. Cell viability was assessed by MTT assays as described (Lebedeva et al., 2000, Cancer Research 60:6052-6060). Briefly, cells were seeded in 96-well tissue culture plates (1.5×10^3 cells per well) and treated with various agents. At the indicated times, medium was removed, and fresh medium containing 0.5 mg/ml MTT was added to each well. The cells were incubated at 37° C. for 4 h and then an equal volume of solubilization solution (0.01N HCl in 10% SDS) was added to each well and mixed thoroughly. The optical density from the plates was read on a BioRad Microplate Reader Model 550 at 595 nm.

[2] = test system: pancreatic carcinoma cells; test: ROS production (flow cytometry)
Experimental: FIG. 46. Combined treatment by NSC656240 or Ar2O3 and Ad.mda-7 causes overproduction of ROS in pancreatic carcinoma cells.
Assessment of ROS Production. To determine ROS production, cells were stained with 2.5 μM HE or 5 μM DCFH-DA in PBS for 30 min at 37° C. in the dark. Immediately after staining, cells were analyzed by flow cytometry (FACSscan, Becton-Dickinson, Mountain View, Calif.), and data were analyzed using CellQuest software, version 3.1 (Becton Dickinson). For inhibition experiments, NAC (Sigma) was added 2 h prior to infection with Ad.mda-7. In all cases, cells were gated to exclude cell debris.

[3] = test system: pancreatic cancer cell lines; test: Western blotting of K-ras and MDA-7 protein
From the text: FIG. 43. MDA-7 expression in pancreatic cancer cell lines in the presence or absence of Ad.mda-7, Ad.K-rasAS, or NSC656243. The presence of MDA-7 in mutant K-ras cell lines requires expression of both mda-7 and the antisense K-ras construct, and is potentiated by NSC656243.
FIG. 45. The MDA-7 expression observed in the PANC-1 or BxPC-3 cell lines following administration of Ad.mda-7 in combination with either NSC656240 or Ar2O3 is abrogated by NAC administration.
Preparation of Cell Extracts and Western Blotting Analysis. Cells were washed 2× with cold PBS and lysed on ice for 30 min in […] of cold RIPA buffer [50 mM Tris-HCl (pH 8.0), 150 mM NaCl, 0.1% SDS, 1% NP40, and 0.5% sodium deoxycholate] with freshly added 0.1 mg/ml phenylmethylsulfonyl fluoride, 1 mM sodium orthovanadate, and 1 mg/ml aprotinin. After cell debris were removed by centrifugation at 14,000 g for 10 min at 4° C., protein concentrations were determined using the Bio-Rad protein assay system (Bio-Rad Laboratories, Richmond, Calif.). Aliquots of cell extracts containing […] of total protein were resolved in 12% SDS-PAGE and transferred to Immobilon-P PVDF membranes (Millipore Corp., Bedford, Mass.). Filters were blocked for 1 h at room temperature in Blotto A [5% nonfat milk powder in TBS-T: 10 mM Tris-HCl (pH 8.0), 150 mM NaCl, 0.05% Tween 20], and then incubated for 1 h at room temperature in Blotto A containing a 1:1000 dilution of rabbit anti MDA-7 polyclonal antibody. After washing in TBS-T buffer (3×5 min, RT), filters were incubated for 1 h at room temperature in Blotto A containing a 1:10,000 dilution of peroxidase conjugated anti-rabbit secondary antibody (Amersham, Arlington Heights, Ill.). After washing in TBS-T, ECL was performed according to the manufacturer's recommendation.

[4] = test system: pancreatic carcinoma cells; test: Apoptosis (annexin V exposure, hypodiploid A0 cells)
From the text: FIG. 39. Combined treatment of pancreatic carcinoma cells by NSC656240 and Ad.mda-7 increases levels of annexin V in pancreatic cancer cells irrespective of K-ras status.
FIG. 40. NAC administration prevents the apoptosis of pancreatic cancer cells induced by treatment of pancreatic carcinoma cells by NSC656240 or Ar2O3 and Ad.mda-7.
FIG. 41. Combined treatment of pancreatic carcinoma cells by NSC656240 or Ar2O3 and Ad.mda-7 causes apoptosis irrespective of K-ras status.
Annexin V Binding Assays. Cells were trypsinized, washed once with complete medium and stained with FITC-labeled Annexin-V (kit from Oncogene Research Products, Boston, Mass.) according to the manufacturer's instructions. Flow cytometry was performed immediately after staining.
Cell Cycle Analysis. Cells were trypsinized, washed 2× with PBS and fixed in 70% ethanol overnight at −20° C. Then cells were washed 2 times with PBS, and aliquots of 1×10^6 cells were resuspended in 1 ml of PBS containing 1 mg/ml of RNase A and 0.5 mg/ml of propidium iodide. After 30 min incubation, cells were analyzed by flow cytometry using a FACScan flow cytometer (Becton Dickinson, San Jose, Calif.).

[5] = test system: prostate carcinoma cell lines (DU-145, PC-3, LNCaP); test: MTT viability assay; conditions: 48 h
Experimental: as §1
[…] Cellular viability was assessed by MTT assay 48 h after infection (Panel A). Mitochondrial membrane potential (DiOC6(3) staining, Panel B) and apoptotic changes (Annexin V staining, Panel C) were assessed 18 h (LNCaP cells) and 24 h (DU-145, PC-3 and P69 cells) after infection.
as §2, with “This method” for “Cell viability”, “performed” for “assessed by MTT assays”, “Briefly, cells were seeded in 96-well tissue culture plates (1.5×10^3 cells per well) and treated with various agents.” left out, “time points,” for “times,”

[6] = test system: pancreatic cancer cells stably transformed to express MDA-7; test: Apoptosis and cell death in cells stably expressing MDA-7
From the text: FIG. 49. Induction of apoptosis in pancreatic cancer cell lines (PANC-1) stably expressing MDA-7.
FIG. 50. Induction of apoptosis in pancreatic cancer cell lines (Mia PaCa-2) stably expressing MDA-7.
FIG. 51. Induction of apoptosis in pancreatic cancer cell lines (FM516 or BxPC-3) stably expressing MDA-7.

Compound	ROS levels (prostate carcinoma cells; treated with NSC656240 or As2O3)	cell death, combinational treatment with Ad.mda-7 ([1]; Ad.mda-7 100 p.f.u./cell)	ROS production, combined treatment with Ad.mda-7 [2]	MDA-7 protein expression and secretion, combined treatment with Ad.mda-7 ([3]; wt and mutated K-ras pancreatic cancer cell lines)	apoptosis, combination treatment with Ad.mda-7 ([4]; annexin V exposure and A0 population)	effect of ROS-producing agent on cell death of Ad.mda-7-infected cells ([5]; As2O3 10 μM, NSC656240 400 nM)	apoptosis and cell death [6]	effect of NAC on Ad.mda-7-induced ROS generation (prostate carcinoma cells; non-cytotoxic dose of NAC)	effect of N-acetyl-cysteine on death after combinational treatment [1]	effect of NAC on ROS production [2]	effect of NAC on MDA-7 expression and secretion ([3]; both type of cells)	effect of NAC on apoptosis after combination treatment [4]	effect of antioxidant on cell death promoting activity of Ad.mda-7 ([5]; NAC 5 mM, Tiron 1 mM)	effect of NAC on apoptosis and cell death [6]
arsenic trioxide	ROS levels increased proportionally	caused death of these cells irrespective of their K-ras status	Caused ROS overproduction	leads to MDA-7 protein expression and secretion	caused apoptosis in pancreatic carcinoma cells independently of their K-ras status	potentiated cell death	caused apoptosis and cell death	–	–	–	–	–	–	–
CC(=O)N[C@@H](CS)C(=O)O [NAC, N-acetyl-cysteine]	–	–	–	–	–	–	–	suppressed Ad.mda-7-induced ROS generation	death can be prevented	blocked ROS production	abrogates MDA-7 expression and secretion	prevents apoptosis	abrogated	blocks these processes
